This note sets out measurements from ChEMBL document CHEMBL3769337, “Inspired by magnolol: design of NSAID-based compounds with excellent anti-inflammatory effects” (2015).

Activity calls are given as the source filed them. The calls are words filed in the database; no cut-off is given here.

Test [1] concerns Mus musculus. Put plainly: Antiinflammatory activity in TPA induced BALB/c mouse ear edema model assessed as decrease in weight of ear punches at 0.75 uM administered topically for 6 mins prior to TPA challenge measured after 6 hrs relative to control. Type of test: functional. Also on record: scale not given: the % may be the effect or the level left.
Test [2] concerns Mus musculus. Nature of the test: Antiinflammatory activity in TPA induced BALB/c mouse ear edema model assessed as decrease in weight of ear punches administered topically for 6 mins prior to TPA challenge measured after 6 hrs relative to control. The format is functional. Also on record: concentration or dose not given beside the values; scale not given: the % may be the effect or the level left.

Test [3] has as its system Mus musculus. Nature of the test: In vivo inhibition of TPA induced IKK activity in TPA induced BALB/c mouse ear edema model administered topically for 6 mins prior to TPA challenge measured after 6 hrs by immunohistochemical analysis. Type of test: functional, organism-based.
Test [4] deals with Mus musculus. Nature of the test: In vivo inhibition of TPA induced NF-kappa-B transcriptional activity in TPA induced BALB/c mouse ear edema model administered topically for 6 mins prior to TPA challenge measured after 6 hrs by immunohistochemical analysis. Type of test: functional, organism-based.
Test [5] deals with Mus musculus. Put plainly: In vivo inhibition of TPA induced I-kappa-B-alpha phosphorylation in TPA induced BALB/c mouse ear edema model administered topically for 6 mins prior to TPA challenge measured after 6 hrs by immunohistochemical analysis. Type of test: functional, organism-based.
Test [6] has as its system Mus musculus. Put plainly: Decrease in nuclear level of phosphorylated p65 in TPA induced BALB/c mouse ear edema model administered topically for 6 mins prior to TPA challenge measured after 6 hrs by immunohistochemical analysis. Type of test: functional, organism-based.
Test [7] has as its system Mus musculus. Put plainly: Decrease in TPA induced TNF-alpha levels in TPA induced BALB/c mouse ear edema model administered topically for 6 mins prior to TPA challenge measured after 6 hrs by immunohistochemical analysis. Type of test: functional, organism-based.
Test [8] has as its system Mus musculus. Nature of the test: In vivo inhibition of TPA induced p65 translocation form cytoplasm to nucleus in TPA induced BALB/c mouse ear edema model administered topically for 6 mins prior to TPA challenge measured after 6 hrs by immunohistochemical analysis. The format is functional, organism-based.
Test [9] concerns Mus musculus. Nature of the test: Antiinflammatory activity in TPA induced BALB/c mouse ear edema model assessed as morphological alterations administered topically for 6 mins prior to TPA challenge measured after 6 hrs by Hematoxylin and Eosin staining based microscopy. The format is functional, organism-based.
The test system of test [10] is Mus musculus. Nature of the test: Decrease in TPA induced IL6 levels in TPA induced BALB/c mouse ear edema model administered topically for 6 mins prior to TPA challenge measured after 6 hrs by immunohistochemical analysis. Type of test: functional, organism-based.
Test [11] has as its system Mus musculus. Put plainly: Decrease in TPA induced IL-1beta levels in TPA induced BALB/c mouse ear edema model administered topically for 6 mins prior to TPA challenge measured after 6 hrs by immunohistochemical analysis. Type of test: functional, organism-based.
In test [12] the test system is Mus musculus. Put plainly: Antiinflammatory activity in TPA induced BALB/c mouse ear edema model assessed as decrease in inflammatory cell infiltration level administered topically for 6 mins prior to TPA challenge measured after 6 hrs by Hematoxylin and Eosin staining based microscopy. The format is functional, organism-based.
For test [13], the system named is Mus musculus. Nature of the test: Antiinflammatory activity in TPA induced BALB/c mouse ear edema model assessed as decrease in weight of ear punches at 1.5 uM administered topically for 6 mins prior to TPA challenge measured after 6 hrs relative to control. The format is functional. Set-up: scale not given: the % may be the effect or the level left.
Test [14] concerns Mus musculus. Nature of the test: Antiinflammatory activity in TPA induced BALB/c mouse ear edema model assessed as decrease in inflammatory cell infiltration level compound cotreated with ketoprofen at 1:1 compound to ketoprofen ratio administered topically for 6 mins prior to TPA challenge measured after 6 hrs by Hematoxylin and Eosin staining based microscopy. Type of test: functional, organism-based.

For test [15], the system named is Mus musculus. Nature of the test: Antiinflammatory activity in TPA induced BALB/c mouse ear edema model assessed as decrease in weight of ear punches compound co-treated with diclofenac at 1:1 compound to diclofenac ratio administered topically for 6 mins prior to TPA challenge measured after 6 hrs relative to control. Type of test: functional. Also on record: scale not given: the % may be the effect or the level left.

The test system of test [16] is Mus musculus. Nature of the test: Antiinflammatory activity in TPA induced BALB/c mouse ear edema model assessed as decrease in weight of ear punches compound co-treated with ketoprofen at 1:2 compound to ketoprofen ratio administered topically for 6 mins prior to TPA challenge measured after 6 hrs relative to control. Type of test: functional. Set-up: scale not given: the % may be the effect or the level left.

Test [17] concerns Mus musculus. Put plainly: Antiinflammatory activity in TPA induced BALB/c mouse ear edema model assessed as decrease in weight of ear punches at 0.1 uM administered topically for 6 mins prior to TPA challenge measured after 6 hrs relative to control. The format is functional. Also on record: scale not given: the % may be the effect or the level left.
Test [18] concerns Mus musculus. Put plainly: Antiinflammatory activity in TPA induced BALB/c mouse ear edema model assessed as decrease in weight of ear punches compound co-treated with ketoprofen at 1:1 compound to ketoprofen ratio administered topically for 6 mins prior to TPA challenge measured after 6 hrs relative to control. Type of test: functional. Also on record: scale not given: the % may be the effect or the level left.

In test [19] the test system is Mus musculus. Put plainly: Antiinflammatory activity in TPA induced BALB/c mouse ear edema model assessed as decrease in weight of ear punches at 0.325 uM administered topically for 6 mins prior to TPA challenge measured after 6 hrs relative to control. The format is functional. Set-up: scale not given: the % may be the effect or the level left.
Test [20] concerns Mus musculus. Nature of the test: Antiinflammatory activity in TPA induced BALB/c mouse ear edema model assessed as decrease in weight of ear punches compound co-treated with flufenamic acid at 1:2 compound to flufenamic acid ratio administered topically for 6 mins prior to TPA challenge measured after 6 hrs relative to control. The format is functional. Set-up: scale not given: the % may be the effect or the level left.

The subject of test [21] is Mus musculus. Put plainly: Antiinflammatory activity in TPA induced BALB/c mouse ear edema model assessed as decrease in weight of ear punches compound co-treated with naproxen at 1:2 compound to naproxen ratio administered topically for 6 mins prior to TPA challenge measured after 6 hrs relative to control. Type of test: functional. Set-up: scale not given: the % may be the effect or the level left.

Test [22] relates to Mus musculus. Nature of the test: Antiinflammatory activity in TPA induced BALB/c mouse ear edema model assessed as decrease in weight of ear punches compound co-treated with flufenamic acid at 1:1 compound to flufenamic acid ratio administered topically for 6 mins prior to TPA challenge measured after 6 hrs relative to control. The format is functional. Set-up: scale not given: the % may be the effect or the level left.

Test [23] concerns Mus musculus. Nature of the test: Antiinflammatory activity in TPA induced BALB/c mouse ear edema model assessed as decrease in weight of ear punches compound co-treated with diflunisal at 1:1 compound to diflunisal ratio administered topically for 6 mins prior to TPA challenge measured after 6 hrs relative to control. The format is functional. Also on record: scale not given: the % may be the effect or the level left.

Test [24] concerns Mus musculus. Put plainly: Antiinflammatory activity in TPA induced BALB/c mouse ear edema model assessed as decrease in weight of ear punches compound co-treated with naproxen at 1:1 compound to naproxen ratio administered topically for 6 mins prior to TPA challenge measured after 6 hrs relative to control. The format is functional. Also on record: scale not given: the % may be the effect or the level left.

Test [25] concerns Mus musculus. Put plainly: Antiinflammatory activity in TPA induced BALB/c mouse ear edema model assessed as decrease in weight of ear punches at 3 uM administered topically for 6 mins prior to TPA challenge measured after 6 hrs relative to control. The format is functional. Set-up: scale not given: the % may be the effect or the level left.

For the molecule `C=CCc1ccc(O)c(-c2cc(CC=C)ccc2OC(=O)c2cc(-c3ccc(F)cc3F)ccc2O)c1`, the Activity result in test [1] is “<=90%”.

Take `C=CCc1ccc(OC(=O)Cc2ccccc2Nc2c(Cl)cccc2Cl)c(-c2cc(CC=C)ccc2OC(=O)Cc2ccccc2Nc2c(Cl)cccc2Cl)c1`: the outcome in [1] was inactive.

As for `COc1ccc2cc([C@H](C)C(=O)O)ccc2c1` [NAPROXEN], in test [2], the Activity is on record as 46%.

For the molecule `C=CCc1ccc(OC(=O)C(C)c2cccc(C(=O)c3ccccc3)c2)c(-c2cc(CC=C)ccc2OC(=O)C(C)c2cccc(C(=O)c3ccccc3)c2)c1` (stereo unspecified), the Activity result in test [1] was “<=90%”.

As for `C=CCc1ccc(O)c(-c2cc(CC=C)ccc2OC(=O)C(C)c2cccc(C(=O)c3ccccc3)c2)c1` (stereo unspecified), the inhibition entry in test [3], in test [4], in test [5] and in test [8] was “Active” each time. Further, the result in test [6], in test [7], in test [9], in test [10], in test [11] and in test [12] was Active. The Activity result in [1] is on record as “<=90%”.

On to `C=CCc1ccc(OC(=O)CC2(CC)OCCc3c2[nH]c2c(CC)cccc32)c(-c2cc(CC=C)ccc2OC(=O)CC2(CC)OCCc3c2[nH]c2c(CC)cccc32)c1` (stereo unspecified), for which, in test [1], the outcome was inactive.

As to `C=CCc1ccc(OC(=O)c2ccccc2O)c(-c2cc(CC=C)ccc2OC(=O)c2ccccc2O)c1`, the outcome in [1] was inactive.

As to `C=CCc1ccc(OC(=O)[C@@H](C)c2ccc3cc(OC)ccc3c2)c(-c2cc(CC=C)ccc2OC(=O)[C@@H](C)c2ccc3cc(OC)ccc3c2)c1`, the Activity entry in [1] is recorded as “<=90%”.

With `C=CCc1ccc(OC(=O)c2ccccc2Nc2cccc(C)c2C)c(-c2cc(CC=C)ccc2OC(=O)c2ccccc2Nc2cccc(C)c2C)c1`, in test [1], the outcome was inactive.

For the molecule `C=CCc1ccc(OC(=O)c2cc(-c3ccc(F)cc3F)ccc2O)c(-c2cc(CC=C)ccc2OC(=O)c2cc(-c3ccc(F)cc3F)ccc2O)c1`, in test [1], the outcome was inactive.

For the molecule `CC(C(=O)O)c1cccc(C(=O)c2ccccc2)c1` (stereo unspecified) [KETOPROFEN], in test [2], the Activity came to 10.9%. Further, in test [12], the outcome was Active.

For `C=CCc1ccc(O)c(-c2cc(CC=C)ccc2OC(=O)[C@@H](C)c2ccc3cc(OC)ccc3c2)c1`, the Activity result in test [1] is “<=90%”.

For the molecule `O=C(O)c1ccccc1Nc1cccc(C(F)(F)F)c1` [FLUFENAMIC ACID], the Activity in test [2] is reported as 75.8%.

Take `O=C(O)c1cc(-c2ccc(F)cc2F)ccc1O` [DIFLUNISAL]: in test [2], the Activity was 80.5%.

Turning to `C=CCc1ccc(O)c(-c2cc(CC=C)ccc2OC(=O)c2ccccc2Nc2cccc(C(F)(F)F)c2)c1`, the Activity entry in test [1] is given as “<=90%”.

Turning to `C=CCc1ccc(O)c(-c2cc(CC=C)ccc2O)c1` [MAGNOLOL], the Activity is 91.7% in test [13]; 87.9% in test [15]; 72.7% in test [16]; “Dose-dependent effect” in test [2]; 52.2% in test [2] (record 2); 8.3% in test [17]. For the same molecule, the Activity in test [18] is reported as 16.6%; in test [19], 16.7%; in test [20], 54.2%; in test [21] it was 92.8%; in test [1], 58.3%; in [22], 70.4%. Also, the Activity was 94.9% in test [23], 40.2% in test [24] and 96.7% in test [25]. Further, the outcome in test [14] and in [12] was Active.

On to `C=CCc1ccc(OC(=O)c2ccccc2Nc2cccc(C(F)(F)F)c2)c(-c2cc(CC=C)ccc2OC(=O)c2ccccc2Nc2cccc(C(F)(F)F)c2)c1`, for which the Activity result in test [1] is recorded as “<=90%”.

Turning to `O=C(O)Cc1ccccc1Nc1c(Cl)cccc1Cl` [DICLOFENAC], in test [2], the Activity is 78.3%.

Turning to `C=CCc1ccc(O)c(-c2cc(CC=C)ccc2OC(=O)Cc2ccccc2Nc2c(Cl)cccc2Cl)c1`, in test [1], the Activity result is listed as “<=90%”.
